Source: US6653478B2, “Substituted benzimidazol-2-ones as vasopressin receptor antagonists and neuropeptide Y modulators” (Ortho-McNeil Pharmaceutical, Inc., priority 2000, dated 2003)
pIC50: −log10 of the molar value.

How the values were obtained:
Design in all cases: expressed in transfected cells; host or cells: HEK-293 (membranes)
human V1b receptor = target: T1, human V1b receptor (Homo sapiens, UniProt P47901); assay: V1b binding assay (3H-AVP displacement, HEK-293 membranes); settings: for inhibition at 1 µM: 1.0 μM compound, read-out: V1b@1.0, % Inh
T1 sequence (P47901 1-424): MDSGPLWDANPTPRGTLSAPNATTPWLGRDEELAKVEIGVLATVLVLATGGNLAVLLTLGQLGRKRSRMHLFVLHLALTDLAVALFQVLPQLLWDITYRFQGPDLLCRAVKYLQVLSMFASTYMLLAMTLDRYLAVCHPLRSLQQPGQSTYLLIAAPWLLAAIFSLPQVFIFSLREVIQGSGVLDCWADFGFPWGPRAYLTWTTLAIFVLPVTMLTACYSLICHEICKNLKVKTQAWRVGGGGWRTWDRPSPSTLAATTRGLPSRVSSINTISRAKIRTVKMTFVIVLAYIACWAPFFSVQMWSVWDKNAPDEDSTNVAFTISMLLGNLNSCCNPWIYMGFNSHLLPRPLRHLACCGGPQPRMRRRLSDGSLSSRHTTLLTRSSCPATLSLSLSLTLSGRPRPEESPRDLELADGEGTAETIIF
Procedure: (§1) V1a, V1b or V2 Binding Assay
(§2) Receptor binding studies were performed using recombinant human V1a, V1b or V2 receptors. Cellular membranes were harvested from HEK-293 cells transfected to express either the V1a, V1b or V2 receptors. Compounds were evaluated for their ability to displace ^3H-arginine vasopressin (^3H-AVP; specific activity 40-87 Ci/mmol; NEN Life Sciences, Boston, Mass.). Compounds were solubilized in dimethylsulfoxide (DMSO) and diluted to working concentration of 10% DMSO with assay buffer (50 mM Tris, 5 mM MgCl2, 0.1% BSA, pH 7.5). Assay buffer was supplemented with several protease inhibitors (1 mM Pefabloc, 5 μg/ml aprotinin/leupeptin/pepstatin A, 50 μg/ml bacitracin; Sigma Chemical, St. Louis, Mo.). Non-specific binding was determined using 1.25 μM arginine vasopressin (AVP; Peninsula Labs, Belmont, Calif.). Assay reagents and test compounds were added to 96-well round bottom polypropylene plates (145 μl buffer, 5 μl compound in 10% DMSO, 25 μl buffer containing 10,000 cpm tracer, 25 μl cell membrane). After incubation for 1 hour at room temperature, the well contents were aspirated across a Unifilter GF/C plate (Packard Instrument, Downers Grove, Ill.) which had been presoaked in 0.3% polyethyleneimine to prevent peptide sticking. The wells were washed repeatedly with cold saline containing 0.05% Tween 20. The plate was then dried and 25 μl Microscint-20 cocktail (Packard Instruments) added to each well. The plates were sealed and counted on a TopCount scintillation counter (Packard Instruments) using quench correction.

human V2 receptor = human V2 receptor (Homo sapiens, UniProt P30518); assay: V2 binding assay (3H-AVP displacement, HEK-293 membranes); settings: 1.0 μM compound; for inhibition at 1 µM: read-out: V2@1.0, % Inh
Procedure: as §1, §2

human V1a receptor = human V1a receptor (Homo sapiens, UniProt P37288); assay: V1a binding assay (3H-AVP displacement, HEK-293 membranes); settings: for inhibition at 1 µM: 1.0 μM compound, read-out: V1a@1.0, % Inh
Procedure: as §1, §2

Chain of human V1a receptor (P37288 whole entry): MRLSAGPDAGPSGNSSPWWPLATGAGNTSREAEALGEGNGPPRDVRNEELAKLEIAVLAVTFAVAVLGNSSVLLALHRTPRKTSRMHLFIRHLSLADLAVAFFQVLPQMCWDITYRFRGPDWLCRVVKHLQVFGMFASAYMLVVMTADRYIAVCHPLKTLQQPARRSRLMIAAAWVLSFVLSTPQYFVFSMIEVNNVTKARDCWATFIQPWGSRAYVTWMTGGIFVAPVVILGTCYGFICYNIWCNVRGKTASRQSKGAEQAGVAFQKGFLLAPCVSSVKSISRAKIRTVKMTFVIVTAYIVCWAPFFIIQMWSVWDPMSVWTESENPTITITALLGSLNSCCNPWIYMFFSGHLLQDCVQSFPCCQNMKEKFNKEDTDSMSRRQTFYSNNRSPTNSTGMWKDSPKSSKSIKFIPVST
Chain of human V2 receptor (P30518 whole entry): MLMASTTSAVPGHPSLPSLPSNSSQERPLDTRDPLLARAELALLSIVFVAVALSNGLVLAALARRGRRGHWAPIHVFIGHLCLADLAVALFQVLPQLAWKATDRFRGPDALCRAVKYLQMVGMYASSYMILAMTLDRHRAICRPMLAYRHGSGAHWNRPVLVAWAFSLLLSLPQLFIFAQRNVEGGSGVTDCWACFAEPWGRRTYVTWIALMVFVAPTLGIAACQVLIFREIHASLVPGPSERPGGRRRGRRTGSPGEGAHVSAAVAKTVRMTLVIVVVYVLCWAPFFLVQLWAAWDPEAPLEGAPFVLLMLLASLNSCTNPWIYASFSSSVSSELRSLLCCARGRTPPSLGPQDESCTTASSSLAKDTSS

SMILES | inhibition at 1 µM (human V1b receptor) | inhibition at 1 µM (human V2 receptor) | inhibition at 1 µM (human V1a receptor) | pIC50 (human V1a receptor) | pIC50 (human V1b receptor) | V2@1.0, % Inh (human V2 receptor; 1 µM)
O=c1n(CCCN2CCCCCC2)c2ccccc2n1C1CCN(C(=S)NC(c2ccccc2)c2ccccc2)CC1 [Compound 141] | 29% | 0% | 83% | – | – | –
CCCN(CCC)CCCn1c(=O)n(C2CCN(C(=O)NC(c3ccccc3)c3ccccc3)CC2)c2ccccc21 [Compound 80, 1-[(N1-piperidinocarbonylbiphenylmethylamino)-4-yl]-3-(3-N,N-dipropylaminopropyl)-1,3-dihydrobenzimidazol-2-one] | 38% | 11% | – | 6.77 | – | –
CC(CN1CCCC1)Cn1c(=O)n(C2CCN(C(=S)NC(c3ccccc3)c3ccccc3)CC2)c2ccccc21 (centres unmarked) [Compound 148] | 40% | 1% | – | 7.28 | – | –
COc1ccc(C(NC(=S)N2CCC(n3c(=O)n(CCCN4CCCCC4)c4ccccc43)CC2)c2ccc(OC)cc2)cc1 [Compound 136] | 50% | 25% | – | 7.10 | – | –
O=c1n(CCCNCC2CCCCC2)c2ccccc2n1C1CCN(C(=S)NC(c2ccccc2)c2ccccc2)CC1 [Compound 88, 1-[(N1-piperidinocarbothioylbiphenylmethylamino)-4-yl]-3-(3-cyclohexylmethylaminopropyl)-1,3-dihydrobenzimidazol-2-one] | – | 3% | – | 7.44 | 6.00 | –
O=C1OCCC1NC(=S)N1CCC(n2c(=O)n(CCCN3CCCCC3)c3ccccc32)CC1 (centres unmarked) [Compound 157] | 0% | 6% | 5% | – | – | –
O=c1n(CCCN2CCCCC2)c2ccccc2n1C1CCN(C(=S)NCc2ccco2)CC1 [Compound 158] | 18% | 42% | 55% | – | – | –
O=c1n(CCCN2CCCCC2)c2ccccc2n1C1CCN(C(=S)Nc2cccnc2)CC1 [Compound 154] | 0% | 3% | 7% | – | – | –
O=c1n(CCCN2CC=CCC2)c2ccccc2n1C1CCN(C(=S)NC(c2ccccc2)c2ccccc2)CC1 [Compound 143] | 65% | 8% | – | 7.39 | – | –
CC(C)c1ccccc1NC(=S)N1CCC(n2c(=O)n(CCCN3CCCCC3)c3ccccc32)CC1 [Compound 132, 1-[(N1-piperidinocarbothioyl-2-isopropylphenylamino)-4-yl]-3-(3-N-piperidinylpropyl)-1,3-dihydrobenzimidazol-2-one] | 55% | 0% | 66% | – | – | –
O=c1n(CCCN2CCCCC2)c2ccccc2n1C1CCN(C(=S)NCc2ccc(Cl)cc2Cl)CC1 [Compound 164] | 35% | 5% | – | 7.07 | – | –
CCCNC(=S)N1CCC(n2c(=O)n(CCCN3CCCCC3)c3ccccc32)CC1 [Compound 128, 1-[(N1-piperidinocarbothioylpropylamino)-4-yl]-3-(3-N-piperidinylpropyl)-1,3-dihydrobenzimidazol-2-one] | 31% | 0% | 12% | – | – | –
O=c1n(CCCN2CCCCC2)c2ccccc2n1C1CCN(C(=S)NCc2ccc3c(c2)OCO3)CC1 [Compound 163] | 27% | 0% | – | 6.82 | – | –
O=c1n(CCCN2CCCCC2)c2ccccc2n1C1CCN(C(=S)NCC2CCCO2)CC1 (centres unmarked) [Compound 159] | 10% | 0% | 2% | – | – | –
O=c1n(CCCN2CCCCC2)c2ccccc2n1C1CCN(C(=S)Nc2ccc(N3CCOCC3)cc2)CC1 [Compound 153] | 0% | 0% | 0% | – | – | –
CC(CN1CCCCC1)Cn1c(=O)n(C2CCN(C(=O)NC(c3ccccc3)c3ccccc3)CC2)c2ccccc21 (centres unmarked) [Compound 147] | 27% | 1% | – | 6.36 | – | –
O=c1n(CCCN2CCCCC2)c2ccccc2n1C1CCN(C(=S)NC(c2ccccc2)(c2ccccc2)c2ccccc2)CC1 [Compound 126, 1-[(N1-piperidinocarbothioyltriphenylmethylamino)-4-yl]-3-(3-N-piperidinylpropyl)-1,3-dihydrobenzimidazol-2-one] | 0% | 0% | 0% | – | – | –
O=c1n(CCCN2CCCCCCC2)c2ccccc2n1C1CCN(C(=S)NC(c2ccccc2)c2ccccc2)CC1 [Compound 142] | 56% | 4% | – | 7.17 | – | –
CN1CCN=C1NCCCn1c(=O)n(C2CCN(C(=S)NC(c3ccccc3)c3ccccc3)CC2)c2ccccc21 [Compound 144] | 31% | 2% | – | 6.40 | – | –
O=c1n(CCCN2CCCCC2)c2ccccc2n1C1CCN(C(=S)NC2CCCCC2)CC1 [Compound 125, 1-[(N1-piperidinocarbothioylcyclohexylamino)-4-yl]-3-(3-N-piperidinylpropyl)-1,3-dihydrobenzimidazol-2-one] | 35% | 0% | – | 6.41 | – | –
Cc1ccccc1CNC(=O)N1CCC(n2c(=O)n(CCCN3CCCCC3)c3ccccc32)CC1 [Compound 151] | 37% | 0% | 62% | – | – | –
O=c1n(CCCN2CCCCC2)c2ccccc2n1C1CCN(C(=S)Nc2ccccc2-c2ccccc2)CC1 [Compound 161] | 40% | 2% | – | 6.97 | – | –
O=c1n(CCCN2CCCCC2)c2ccccc2n1C1CCN(C(=S)NCc2ccc(Cl)cc2)CC1 [Compound 124, 1-[(N1-piperidinocarbothioyl-4-chlorobenzylamino)-4-yl]-3-(3-N-piperidinylpropyl)-1,3-dihydrobenzimidazol-2-one] | 44% | 3% | – | 7.54 | – | –

Results, then the molecule that gave them:

inhibition at 1 µM (human V1b receptor) | inhibition at 1 µM (human V2 receptor) | inhibition at 1 µM (human V1a receptor) | pIC50 (human V1a receptor) | pIC50 (human V1b receptor) | V2@1.0, % Inh (human V2 receptor; 1 µM) | SMILES
31% | – | – | 6.83 | – | – | CC(C)N(CCCn1c(=O)n(C2CCN(C(=S)NC(c3ccccc3)c3ccccc3)CC2)c2ccccc21)C1CCCCC1 [Compound 177]
23% | – | 61% | – | – | – | O=C1CCCN1CCCn1c(=O)n(C2CCN(C(=S)NC(c3ccccc3)c3ccccc3)CC2)c2ccccc21 [Compound 175]
– | – | – | 7.92 | 5.76 | 4% | O=c1n(CCCN2CCCCC2)c2ccccc2n1C1CCN(C(=S)NCc2ccccc2-c2ccccc2)CC1 [Compound 169]
58% | – | – | 7.17 | – | – | CCC1CCN(CCCn2c(=O)n(C3CCN(C(=S)NC(c4ccccc4)c4ccccc4)CC3)c3ccccc32)C(C)C1 (centres unmarked) [Compound 180]
43% | 0% | – | 6.60 | – | – | CC(C)(NC(=S)N1CCC(n2c(=O)n(CCCN3CCCCC3)c3ccccc32)CC1)c1ccccc1 [Compound 173]
33% | 2% | 65% | – | – | – | Cc1ccc2c(c1)n(CCCN1CCCCC1)c(=O)n2C1CCN(C(=O)NC(c2ccccc2)c2ccccc2)CC1 [Compound 171]
43% | – | – | 7.05 | – | – | CCCCN(CC)CCCn1c(=O)n(C2CCN(C(=S)NC(c3ccccc3)c3ccccc3)CC2)c2ccccc21 [Compound 178]
– | – | – | 7.64 | 6.82 | – | CC1CCCCN1CCCn1c(=O)n(C2CCN(C(=S)NC(c3ccccc3)c3ccccc3)CC2)c2ccccc21 (centres unmarked) [Compound 181]
31% | – | 59% | – | – | – | O=C1CCCCN1CCCn1c(=O)n(C2CCN(C(=S)NC(c3ccccc3)c3ccccc3)CC2)c2ccccc21 [Compound 176]
65% | – | – | 6.84 | – | – | CCN(CCCn1c(=O)n(C2CCN(C(=S)NC(c3ccccc3)c3ccccc3)CC2)c2ccccc21)C1CCCCC1 [Compound 179]
